From ChEMBL document CHEMBL1151200, “Comparison of fascaplysin and related alkaloids: a study of structures, cytotoxicities, and sources” (J Nat Prod, 2004)

Legend:
MC-38 [1] = experiment: Cytotoxicity against mouse C38 cells at 64 ug/disk by disk diffusion soft agar colony formation assay; assay type: functional
L1210 [2] = experiment: Cytotoxicity against mouse L1210 cells at 64 ug/disk by disk diffusion soft agar colony formation assay; assay type: functional
[3] = Cytotoxicity against human H116 cells at 64 ug/disk by disk diffusion soft agar colony formation assay; assay type: functional
[4] = Cytotoxicity against human H125 cells at 64 ug/disk by disk diffusion soft agar colony formation assay; assay type: functional
MCF7 [5] = experiment: Antitumor activity against […] human MCF7 cells; assay type: functional, cell-based
MC-38 [6] = experiment: Cytotoxicity against mouse C38 cells at 6.4 ug/disk by disk diffusion soft agar colony formation assay; assay type: functional
A549 = experiment: Antitumor activity against human A549/ATCC cells; assay type: functional, cell-based
SR = experiment: Antitumor activity against human SR cells; assay type: functional, cell-based
SK-OV-3 = experiment: Antitumor activity against human SKOV3 cells; assay type: functional, cell-based
NCI-H322M = experiment: Antitumor activity against human NCI-H322M cells; assay type: functional, cell-based
OVCAR-3 = experiment: Antitumor activity against human OVCAR-3 cells; assay type: functional, cell-based
BT-549 = experiment: Antitumor activity against human BT549 cells; assay type: functional, cell-based
SNB-75 = experiment: Antitumor activity against human SNB75 cells; assay type: functional, cell-based
Malme-3M = experiment: Antitumor activity against human MALME-3M cells; assay type: functional, cell-based
HOP-62 = experiment: Antitumor activity against human HOP62 cells; assay type: functional, cell-based
HL-60(TB) = experiment: Antitumor activity against human HL-60(TB) cells; assay type: functional, cell-based
PC-3 = experiment: Antitumor activity against human PC3 cells; assay type: functional, cell-based
HCT-15 = experiment: Antitumor activity against human HCT15 cells; assay type: functional, cell-based
K562 = experiment: Antitumor activity against human K562 cells; assay type: functional, cell-based
ACHN = experiment: Antitumor activity against human ACHN cells; assay type: functional, cell-based
NCI-H522 = experiment: Antitumor activity against human NCI-H522 cells; assay type: functional, cell-based
OVCAR-8 = experiment: Antitumor activity against human OVCAR8 cells; assay type: functional, cell-based
CCRF-CEM [7] = experiment: Cytotoxicity against human CEM cells at 6.4 ug/disk by disk diffusion soft agar colony formation assay; assay type: functional
[8] = Cytotoxicity against human H116 cells at 6.4 ug/disk by disk diffusion soft agar colony formation assay; assay type: functional
[9] = Cytotoxicity against human H125 cells at 6.4 ug/disk by disk diffusion soft agar colony formation assay; assay type: functional
U-251 = experiment: Antitumor activity against human U251 cells; assay type: functional, cell-based
SN12C = experiment: Antitumor activity against human SN12C cells; assay type: functional, cell-based
[10] = Antitumor activity against human 786-O cells; assay type: functional, cell-based; settings: 786-0
L1210 [11] = experiment: Cytotoxicity against mouse L1210 cells 6.4 ug/disk by disk diffusion soft agar colony formation assay; assay type: functional
HCT-116 = experiment: Antitumor activity against human HCT116 cells; assay type: functional, cell-based
HOP-92 = experiment: Antitumor activity against human HOP92 cells; assay type: functional, cell-based
IGROV-1 = experiment: Antitumor activity against human IGROV1 cells; assay type: functional, cell-based
MDA-MB-435 = experiment: Antitumor activity against human MDA-MB-435 cells; assay type: functional, cell-based
RXF 393 = experiment: Antitumor activity against human RXF393 cells; assay type: functional, cell-based
NCI-H460 = experiment: Antitumor activity against human NCI-H460 cells; assay type: functional, cell-based
SF-268 = experiment: Antitumor activity against human SF268 cells; assay type: functional, cell-based
OVCAR-4 = experiment: Antitumor activity against human OVCAR4 cells; assay type: functional, cell-based
NCI-H23 = experiment: Antitumor activity against human NCI-H23 cells; assay type: functional, cell-based
TK-10 = experiment: Antitumor activity against human TK10 cells; assay type: functional, cell-based
UACC-257 = experiment: Antitumor activity against human UACC257 cells; assay type: functional, cell-based
RPMI-8226 = experiment: Antitumor activity against human RPMI8226 cells; assay type: functional, cell-based
[12] = Cytotoxicity against mouse CFU-GM cells at 6.4 ug/disk by disk diffusion soft agar colony formation assay; assay type: cell-based
A498 = experiment: Antitumor activity against human A498 cells; assay type: functional, cell-based
SK-MEL-28 = experiment: Antitumor activity against human SK-MEL-28 cells; assay type: functional, cell-based
SW-620 = experiment: Antitumor activity against human SW620 cells; assay type: functional, cell-based
T47D = experiment: Antitumor activity against human T47D cells; assay type: functional, cell-based
UACC-62 = experiment: Antitumor activity against human UACC62 cells; assay type: functional, cell-based
COLO 205 = experiment: Antitumor activity against human COLO205 cells; assay type: functional, cell-based
[13] = Antitumor activity against human Hs 578T cells; assay type: functional, cell-based
SK-MEL-5 = experiment: Antitumor activity against human SK-MEL-5 cells; assay type: functional, cell-based
HCC 2998 = experiment: Antitumor activity against human HCC2998 cells; assay type: functional, cell-based
SF-295 = experiment: Antitumor activity against human SF295 cells; assay type: functional, cell-based
MOLT-4 = experiment: Antitumor activity against human MOLT4 cells; assay type: functional, cell-based
CAKI-1 = experiment: Antitumor activity against human Caki1 cells; assay type: functional, cell-based
NCI-H226 = experiment: Antitumor activity against human NCI-H226 cells; assay type: functional, cell-based
UO-31 = experiment: Antitumor activity against human UO31 cells; assay type: functional, cell-based
KM12 = experiment: Antitumor activity against human KM12 cells; assay type: functional, cell-based
EKVX = experiment: Antitumor activity against human EKVX cells; assay type: functional, cell-based
M14 = experiment: Antitumor activity against human M14 cells; assay type: functional, cell-based
OVCAR-5 = experiment: Antitumor activity against human OVCAR5 cells; assay type: functional, cell-based
MCF7 [14] = experiment: Antitumor activity against human MCF7 cells; assay type: functional, cell-based
SNB-19 = experiment: Antitumor activity against human SNB19 cells; assay type: functional, cell-based
LOX IMVI = experiment: Antitumor activity against human LOXIMVI cells; assay type: functional, cell-based
[15] = Cytotoxicity against human H116 cells at 0.8 ug/disk by disk diffusion soft agar colony formation assay; assay type: functional
CCRF-CEM [16] = experiment: Cytotoxicity against human CEM cells at 3.4 ug/disk by disk diffusion soft agar colony formation assay; assay type: functional
[17] = Cytotoxicity against human H125 cells at 0.8 ug/disk by disk diffusion soft agar colony formation assay; assay type: functional
[18] = Cytotoxicity against human H116 cells at 3.4 ug/disk by disk diffusion soft agar colony formation assay; assay type: functional
[19] = Cytotoxicity against human H125 cells at 3.4 ug/disk by disk diffusion soft agar colony formation assay; assay type: functional
CCRF-CEM [20] = experiment: Cytotoxicity against human CEM cells at 0.8 ug/disk by disk diffusion soft agar colony formation assay; assay type: functional
L1210 [21] = experiment: Cytotoxicity against mouse L1210 cells at 3.4 ug/disk by disk diffusion soft agar colony formation assay; assay type: functional
[22] = Cytotoxicity against mouse CFU-GM cells at 3.4 ug/disk by disk diffusion soft agar colony formation assay; assay type: cell-based
MC-38 [23] = experiment: Cytotoxicity against mouse C38 cells at 3.4 ug/disk by disk diffusion soft agar colony formation assay; assay type: functional
MC-38 [24] = experiment: Cytotoxicity against mouse C38 cells at 200 ug/disk by disk diffusion soft agar colony formation assay; assay type: functional
[25] = Cytotoxicity against mouse CFU-GM cells at 200 ug/disk by disk diffusion soft agar colony formation assay; assay type: cell-based
L1210 [26] = experiment: Cytotoxicity against mouse L1210 cells at 200 ug/dusk by disk diffusion soft agar colony formation assay; assay type: functional
[27] = Cytotoxicity against human H116 cells at 200 ug/disk by disk diffusion soft agar colony formation assay; assay type: functional
[28] = Cytotoxicity against human H116 cells at 84 ug/disk by disk diffusion soft agar colony formation assay; assay type: functional
CCRF-CEM [29] = experiment: Cytotoxicity against human CEM cells at 84 ug/disk by disk diffusion soft agar colony formation assay; assay type: functional
[30] = Cytotoxicity against human H125 cells at 84 ug/disk by disk diffusion soft agar colony formation assay; assay type: functional
L1210 [31] = experiment: Cytotoxicity against mouse L1210 cells at 84 ug/disk by disk diffusion soft agar colony formation assay; assay type: functional
MC-38 [32] = experiment: Cytotoxicity against mouse C38 cells at 84 ug/disk by disk diffusion soft agar colony formation assay; assay type: functional
[33] = Cytotoxicity against mouse CFU-GM cells at 84 ug/disk by disk diffusion soft agar colony formation assay; assay type: cell-based

SMILES: O=C(O)c1ccc(Br)cc1-[n+]1ccc2c(c1)[nH]c1ccccc12.[Cl-]
- Activity (MC-38 [1]): 250 Zone units
- Activity (L1210 [2]): 100 Zone units
- Activity [3]: 0 Zone units
- Activity [4]: 0 Zone units

SMILES: O=C1c2ccc(Br)cc2-[n+]2ccc3c([nH]c4ccccc43)c21.[Cl-]
- IC50 (MCF7 [5]): 5.3 µM
- Activity (MC-38 [6]): 400 Zone units
- IC50 (A549): > 10 µM
- IC50 (SR): > 10 µM
- IC50 (SK-OV-3): > 10 µM
- IC50 (NCI-H322M): 650 nM
- IC50 (OVCAR-3): 4.4 µM
- IC50 (BT-549): 590 nM
- IC50 (SNB-75): 3.8 µM
- IC50 (Malme-3M): 490 nM
- IC50 (HOP-62): > 10 µM
- IC50 (HL-60(TB)): > 10 µM
- IC50 (PC-3): > 10 µM
- IC50 (HCT-15): > 10 µM
- IC50 (K562): > 10 µM
- IC50 (ACHN): > 10 µM
- IC50 (NCI-H522): 680 nM
- IC50 (OVCAR-8): 600 nM
- Activity (CCRF-CEM [7]): 400 Zone units
- Activity [8]: 600 Zone units
- Activity [9]: 550 Zone units
- IC50 (U-251): > 10 µM
- IC50 (SN12C): 2900 nM
- IC50 [10]: 7.1 µM
- Activity (L1210 [11]): 500 Zone units
- IC50 (HCT-116): 760 nM
- IC50 (HOP-92): > 10 µM
- IC50 (IGROV-1): 740 nM
- IC50 (MDA-MB-435): > 10 µM
- IC50 (RXF 393): 3.1 µM
- IC50 (NCI-H460): > 10 µM
- IC50 (SF-268): 5.6 µM
- IC50 (OVCAR-4): 590 nM
- IC50 (NCI-H23): 890 nM
- IC50 (TK-10): > 10 µM
- IC50 (UACC-257): 5.3 µM
- IC50 (RPMI-8226): > 10 µM
- Activity [12]: 400 Zone units
- IC50 (A498): > 10 µM
- IC50 (SK-MEL-28): 1300 nM
- IC50 (SW-620): > 10 µM
- IC50 (T47D): > 10 µM
- IC50 (UACC-62): 630 nM
- IC50 (COLO 205): > 10 µM
- IC50 [13]: 590 nM
- IC50 (SK-MEL-5): > 10 µM
- IC50 (HCC 2998): 910 nM
- IC50 (SF-295): 590 nM
- IC50 (MOLT-4): > 10 µM
- IC50 (CAKI-1): 1600 nM
- IC50 (NCI-H226): 5.3 µM
- IC50 (UO-31): 530 nM
- IC50 (KM12): 8.5 µM
- IC50 (EKVX): 3.6 µM
- IC50 (M14): 590 nM
- IC50 (OVCAR-5): > 10 µM
- IC50 (MCF7 [14]): 930 nM
- IC50 (SNB-19): 660 nM
- IC50 (LOX IMVI): > 10 µM

SMILES: O=C1c2ccccc2-[n+]2ccc3c([nH]c4cc(Br)ccc43)c21.[Cl-]
- Activity [15]: 400 Zone units
- Activity (CCRF-CEM [16]): 400 Zone units
- Activity [17]: 500 Zone units
- Activity [18]: 600 Zone units
- Activity [19]: 750 Zone units
- Activity (CCRF-CEM [20]): 200 Zone units
- Activity (L1210 [21]): 550 Zone units
- Activity [22]: 350 Zone units
- Activity (MC-38 [23]): 450 Zone units

SMILES: COC(=O)c1ccc(Br)cc1-[n+]1ccc2c(c1)[nH]c1ccccc12.[Cl-]
- Activity (MC-38 [24]): 400 Zone units
- Activity [25]: 250 Zone units
- Activity (L1210 [26]): 350 Zone units
- Activity [27]: 200 Zone units

SMILES: Oc1ccc(Br)cc1-[n+]1ccc2c(c1)[nH]c1ccccc12.[Cl-]
- Activity [28]: 500 Zone units
- Activity (CCRF-CEM [29]): 750 Zone units
- Activity [30]: 550 Zone units
- Activity (L1210 [31]): 450 Zone units
- Activity (MC-38 [32]): 400 Zone units
- Activity [33]: 450 Zone units
